# Read-outs that look alike come from different tables or passages of the source. Where no end group is shown, it is not given here.
# Columns and labels:
# FAK = assay: Western blot, VEGF-induced phosphorylation of FAK in HUVECs; type: cell-based, human; conditions: apoEdp about 6 to about 50 μM for 1 h, VEGF 10 ng/mL ten minutes, concentration dependent
# Protocol: (§1) The mechanism by which apoEdp inhibits angiogenesis and tumor growth was evaluated using Western Blot Analysis.
# (§2) Confluent HUVECs were grown in EBM-2 containing 1% FBS for twenty-four hours. The medium was then replaced with 1% FBS media in the presence or absence of apoEdp in the range of about 6 μM to about 50 μM. The cells were allowed to grow for one hour; then VEGF was added at a concentration of 10 ng/mL. The cells were then incubated for ten minutes to detect the phosphorylated forms of angiogenic signaling molecules.
# (§3) The cells were lysed, quantified for protein concentration, and separated on 4% to 20% pre-cast SDS-PAGE gels. Western blots were then performed of the control cell lysates and the apoEdp treated cell lysates. The western blots were performed with antibodies against the phosphorylated and non-phosphorylated (control) forms of Flk-1, c-Src, FAK, Erk1/2, Akt and eNOS. (Santa Cruz Biotechnology, Santa Cruz, Calif.).
# c-Src = assay: Western blot, VEGF-induced phosphorylation of c-Src in HUVECs; type: cell-based, human; conditions: apoEdp about 6 to about 50 μM for 1 h, VEGF 10 ng/mL ten minutes, concentration dependent
# Protocol: as §1, §2, §3
# [1] = system: VEGF-induced angiogenesis; assay: Rabbit corneal micropocket assay of VEGF-induced angiogenesis; type: in vivo, New Zealand White Rabbits; conditions: rabbit eye, 1% apoEdp eye drops 50 μL topically five times per day for five days, versus saline drops
# Protocol: The effect of apoEdp on angiogenesis in vivo was observed by testing its inhibitory effect on VEGF-induced angiogenesis in a corneal micropocket assay of a rabbit eye model. A corneal micropocket was created with a modified von Graefe cataract knife in each eye of several 2-3 pound New Zealand White Rabbits. A micropellet of 500 μm by 500 μm was prepared which contained 0.4 g of Compritol 888 ATO (Gattefosse) combined with 0.1 g of Squalane oil (Sigma Aldrich) and 20 mg/mL L-α-Phosphatidylcholine. The 20 mg/mL L-α-Phosphatidylcholine contained either saline for the control subjects or 160 ng of VEGF for the test subjects. The right eye of each test subject was implanted with a VEGF-containing pellet and the left eye of each test subject was implanted with a saline-containing pellet. Each of the pellets was positioned about 2 mm from the corneal limbus. […] The area of neovascular response, vessel length and clock hours of new blood vessel formation of each group were all calculated according to the formula, Area (mm^2)=C/12×3.1416[r^2−(r−L)^2] where, C=the number of clock hours at the limbus involved in the neovascular response, L=the length of the longest neovascular pedicle from the limbus onto the anterior cornea, and r=the radius of the cornea.
# [2] = system: MDA-MB-231 human breast cancer cells xenograft; type: in vivo; conditions: nude mice, about 40 mg/kg/day intralesionally for three consecutive days, versus PBS
# Protocol: The effect of apoEdp on tumor growth in vivo was observed by testing its inhibitory effect on xenograft tumor growth post-injection in nude mice.
# The test subjects were female nu/nu mice, aged 8-12 weeks, weighing about 20 g. (Charles River Laboratories, Harlan, Indianapolis, Ind.) The mice were weighed, coded, and divided into experimental groups at random. The mice were subcutaneously injected with about 3×10^6 MDA-MB-231 human breast cancer cells in 100 μL PBS. The cells were injected into the right sides of the dorsal area of the test subjects. The tumor size was allowed to reach about 100 mm^3 which took about ten days.
# Following injection of the tumor cells, the subjects were given injections for three consecutive days. About 40 mg/kg/day of apoEdp was injected intralesionally into the test subjects, and about […] of sterile PBS was injected intralesionally into the control subjects.
# In order to evaluate tumor growth, tumor volume was determined every seven days by measuring the tumor with a digital caliper and calculating tumor volume. Volume was calculated using the formula, V=A×B^2×0.52, where A=longest diameter of the tumor, and B=the shortest diameter of the tumor.
# Flk-1 = assay: Western blot, VEGF-induced phosphorylation of Flk-1 in HUVECs; type: cell-based, human; conditions: apoEdp about 6 to about 50 μM for 1 h, VEGF 10 ng/mL ten minutes, concentration dependent
# Protocol: as §1, §2, §3
# [3] = system: MDA-MB-231 human breast cancer cells; assay: MDA-MB-231 cell viability (CellTiter 96 AQuous One); type: cell-based; conditions: MDA-MB-231 cells, apoEdp up to 300 μM
# Protocol: (§4) To determine whether apoEdp affects cell survival, cell viability of human umbilical vein endothelial cells (HUVECs) and MDA-MB-231 human breast cancer cells was determined by using CellTiter 96® AQuous One solution cell proliferation kit (Promega, Madison, Wis.).
# (§5) HUVECs were obtained from Lonza (Walkersville, Md.) and were maintained in endothelial cell basal medium (EBM-2) (Lonza, Walkersville, Md.) supplemented with 10% fetal bovine serum (FBS) and growth factors. (bullet kit, Lonza, Walkersville, Md.) HUVECs were used between passages 2-6. Human Breast Cancer cells MDA-MB-231 were obtained from the American Type Tissue Collection and cultured in Dulbecco's Modified Eagle's medium supplemented with 10% fetal bovine serum, 0.1 mg/mL streptomycin and 25 U/mL penicillin.
# (§6) The MDA-MB-231 cells were in 96-well plates at about 5,000 cells per well. The MDA-MB-231 cells were then allowed to adhere to the plate with apoEdp in various concentrations in the range of about 6 μM to about 300 μM. The cells were incubated for two days, and cell numbers were determined using the CellTiter 96® AQuous One Solution cell proliferation kit. (Promega, Madison, Wis.)
# [4] = as above; type: cell-based, human; conditions: human, MDA-MB-231 human breast cancer cells; MDA-MB-231 cells, incubated two days, apoEdp about 6 to about 300 μM; read-out: 50% cytotoxic dose
# Protocol: as §4, §5, §6
# Akt = assay: Western blot, VEGF-induced phosphorylation of Akt in HUVECs; type: cell-based, human; conditions: apoEdp about 6 to about 50 μM for 1 h, VEGF 10 ng/mL ten minutes, concentration dependent
# Protocol: as §1, §2, §3
# Erk1/2 = assay: Western blot, VEGF-induced phosphorylation of Erk1/2 in HUVECs; type: cell-based, human; conditions: apoEdp about 6 to about 50 μM for 1 h, VEGF 10 ng/mL ten minutes, concentration dependent
# Protocol: as §1, §2, §3
# [5] = human, human umbilical vein endothelial cells (HUVECs)
# Protocol: The HUVECs, as described above, were seeded in 96-well plates at about 10,000 cells per well. The next day, the cells were starved for 18 hours in EBM-2+1% FBS without any growth supplement. The HUVECs were then incubated with apoEdp in various concentrations in the range of about 6 μM to about 300 μM. An hour later, 50 ng/mL of vascular endothelial growth factor (VEGF) was introduced. The cells were incubated for two days, and cell numbers were determined using the CellTiter96 AQuous One Solution cell proliferation kit. (Promega, Madison, Wis.)
# eNOS = assay: Western blot, VEGF-induced phosphorylation of eNOS in HUVECs; type: cell-based, human; conditions: apoEdp about 6 to about 50 μM for 1 h, VEGF 10 ng/mL ten minutes, concentration dependent
# Protocol: as §1, §2, §3
sequence,measurement,setting,value
LRKLRKRLLLRKLRKRLL [apoEdp],VEGF-induced phosphorylation of FAK,FAK,significantly inhibited
same,VEGF-induced phosphorylation of c-Src,c-Src,significantly inhibited
same,VEGF-induced angiogenesis (area of neovascular response),[1],significantly inhibited
same,tumor growth (tumor volume),[2],significantly inhibited
same,VEGF-induced phosphorylation of Flk-1,Flk-1,significantly inhibited
same,effect on cell viability,[3],no effect on cell viability
same,CC50 at 48 h,[4],> 300 µM
same,VEGF-induced phosphorylation of Akt,Akt,significantly inhibited
same,VEGF-induced phosphorylation of Erk1/2,Erk1/2,significantly inhibited
same,CC50 at 48 h,[5],~103 µM
same,VEGF-induced phosphorylation of eNOS,eNOS,significantly inhibited

# — patent US20120053128A1, “Method of inhibiting angiogenesis” (XAVIER UNIVERSITY, priority 2010, published 2012)
